Target: hCRTH2 receptor (Homo sapiens (Human), UniProt Q9Y5Y4)
Experiment: hCRTH2 receptor membranes radioligand (3H-PGD2) displacement assay
Assay type: binding
Conditions: 3H-PGD2 radioligand displacement, HEK293-hCRTH2 membranes
Summary of the method: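 Compound was first mixed with buffer, then 3H-PGD2 was added at 2.5 nM, and the reaction was started with hCRTH2 membranes from HEK293 cells at 20 μg/well. After 90 min at room temperature, mixtures were filtered and washed with ice-cold buffer, and retained radioactivity was counted.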

hCRTH2 receptor, sequence (Q9Y5Y4 whole entry): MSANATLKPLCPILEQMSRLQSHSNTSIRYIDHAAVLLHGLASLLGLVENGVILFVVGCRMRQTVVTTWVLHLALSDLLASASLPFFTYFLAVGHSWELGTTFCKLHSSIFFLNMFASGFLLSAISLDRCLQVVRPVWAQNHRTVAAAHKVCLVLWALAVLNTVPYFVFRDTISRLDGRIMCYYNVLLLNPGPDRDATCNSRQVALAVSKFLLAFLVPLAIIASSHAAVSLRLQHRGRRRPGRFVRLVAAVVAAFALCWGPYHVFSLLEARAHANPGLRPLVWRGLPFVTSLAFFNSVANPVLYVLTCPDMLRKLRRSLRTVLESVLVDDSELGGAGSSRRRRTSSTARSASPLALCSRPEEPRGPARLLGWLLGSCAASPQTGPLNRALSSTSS

SMILES | IC50 [µM]
COc1ccc(CC(=O)O)cc1-c1ccc(F)c2c1CN(C(=O)COc1ccc(F)cc1)CC2 [Example 44, (3-{5-Fluoro-2-[2-(4-fluoro-phenoxy)-acetyl]-1,2,3,4-tetrahydro-isoquinolin-8-yl}-4-methoxy-phenyl)-acetic acid] | 0.0591
COc1ccc(CC(=O)O)cc1-c1ccc(Cl)c2c1CN(C(=O)CCCc1ccccc1F)CC2 [Example 74, (3-{5-Chloro-2-[4-(2-fluoro-phenyl)-butyryl]-1,2,3,4-tetrahydro-isoquinolin-8-yl}-4-methoxy-phenyl)-acetic acid] | 0.0105
COc1cc(CC(=O)O)ccc1-c1ccc(F)c2c1CN(C(=O)CCn1ncc3cc(F)ccc31)CC2 [Example 190, (4-{5-Fluoro-2-[3-(5-fluoro-indazol-1-yl)-propionyl]-1,2,3,4-tetrahydro-isoquinolin-8-yl}-3-methoxy-phenyl)-acetic acid] | 0.00725
CCOc1ccc(CC(=O)O)cc1-c1ccc(F)c2c1CN(C(=O)CC(C)c1ccccc1F)CC2 (racemic) [Example 280] | 0.0034
COc1ccc(CC(=O)O)cc1-c1ccc(F)c2c1CN(C(=O)/C=C/c1cccnc1)CC2 [Example 89, {3-[5-Fluoro-2-((E)-3-pyridin-3-yl-acryloyl)-1,2,3,4-tetrahydro-isoquinolin-8-yl]-4-methoxy-phenyl}-acetic acid] | 0.0572
COc1cc(CC(=O)O)ccc1-c1ccc(F)c2c1CN(C(=O)[C@@H]1C[C@H]1c1ccccc1)CC2 [Example 184, {4-[5-Fluoro-2-((1R,2R)-2-phenyl-cyclopropanecarbonyl)-1,2,3,4-tetrahydro-isoquinolin-8-yl]-3-methoxy-phenyl}-acetic acid] | 0.0009
CCCc1ccc(CC(=O)O)cc1-c1ccc(F)c2c1CN(C(=O)OCc1ccccc1)CC2 [Example 215, 8-(5-Carboxymethyl-2-propyl-phenyl)-5-fluoro-3,4-dihydro-1H-isoquinoline-2-carboxylic acid benzyl ester] | 0.0036
CCOc1cc(CC(=O)O)ccc1-c1ccc(F)c2c1CN(C(=O)NCc1cccc(F)c1)CC2 [Example 441, {3-Ethoxy-4-[5-fluoro-2-(3-fluoro-benzylcarbamoyl)-1,2,3,4-tetrahydro-isoquinolin-8-yl]-phenyl}-acetic acid] | 0.0175
CCOc1ccc(CC(=O)O)cc1-c1ccc(F)c2c1CN(C(=O)NCc1ccccc1Cl)CC2 [Example 436, {3-[2-(2-Chloro-benzylcarbamoyl)-5-fluoro-1,2,3,4-tetrahydro-isoquinolin-8-yl]-4-ethoxy-phenyl}-acetic acid] | 0.0054
CCOc1ccc(CC(=O)O)cc1-c1ccc(F)c2c1CN(C(=O)CC(C)c1ccccc1OC)CC2 (racemic) [Example 282] | 0.0022
COc1ccc(CC(=O)O)cc1-c1ccc(F)c2c1CN(C(=O)CCn1ncc3ccccc31)CC2 [Example 67, {3-[5-Fluoro-2-(3-indazol-1-yl-propionyl)-1,2,3,4-tetrahydro-isoquinolin-8-yl]-4-methoxy-phenyl}-acetic acid] | 0.0216
COc1cccc(OCC(=O)O)c1-c1ccc(F)c2c1CN(C(=O)OCc1ccccc1)CC2 [Example 417, 8-(2-Carboxymethoxy-6-methoxy-phenyl)-5-fluoro-3,4-dihydro-1H-isoquinoline-2-carboxylic acid benzyl ester] | 0.0235
CCOc1cc(CC(=O)O)ccc1-c1ccc(F)c2c1CN(C(=O)CC1CCc3ccccc31)CC2 (racemic) [Example 233] | 0.0011
COc1ccc(CC(=O)O)cc1-c1ccc(F)c2c1CN(C(=O)OCC(C)C)CC2 [Example 142, 8-(5-Carboxymethyl-2-methoxy-phenyl)-5-fluoro-3,4-dihydro-1H-isoquinoline-2-carboxylic acid isobutyl ester] | 0.148
COc1ccc(CC(=O)O)cc1-c1ccc(F)c2c1CN(C(=O)CCC(=O)c1ccccc1)CC2 [Example 118, {3-[5-Fluoro-2-(4-oxo-4-phenyl-butyryl)-1,2,3,4-tetrahydro-isoquinolin-8-yl]-4-methoxy-phenyl}-acetic acid] | 0.0386
COc1cc(CC(=O)O)ccc1-c1ccc(F)c2c1CN(C(=O)CCOc1ccc(F)cc1)CC2 [Example 192, (4-{5-Fluoro-2-[3-(4-fluoro-phenoxy)-propionyl]-1,2,3,4-tetrahydro-isoquinolin-8-yl}-3-methoxy-phenyl)-acetic acid] | 0.00069
CCOc1ccc(CC(=O)O)cc1-c1ccc(F)c2c1CN(C(=O)Cc1ccccn1)CC2 [Example 340, {4-Ethoxy-3-[5-fluoro-2-(2-pyridin-2-yl-acetyl)-1,2,3,4-tetrahydro-isoquinolin-8-yl]-phenyl}-acetic acid] | 0.897
COc1ccc2onc(CC(=O)N3CCc4c(F)ccc(-c5cc(CC(=O)O)ccc5OC)c4C3)c2c1 [Example 49, (3-{5-Fluoro-2-[2-(5-methoxy-benzo[d]isoxazol-3-yl)-acetyl]-1,2,3,4-tetrahydro-isoquinolin-8-yl}-4-methoxy-phenyl)-acetic acid] | 0.054

SMILES | IC50 [µM]
O=C(O)Cc1ccc(-c2ccc(F)c3c2CN(C(=O)[C@@H]2C[C@H]2c2ccccc2)CC3)c(OCC(F)(F)F)c1 [Example 289, [4-[5-Fluoro-2-((1R,2R)-2-phenyl-cyclopropanecarbonyl)-1,2,3,4-tetrahydro-isoquinolin-8-yl]-3-(2,2,2-trifluoro-ethoxy)-phenyl]-acetic acid] | 0.0014
CCOc1cc(CC(=O)O)ccc1-c1ccc(F)c2c1CN(C(=O)[C@@H]1C[C@H]1c1ccccc1)CC2 [Example 231, {3-Ethoxy-4-[5-fluoro-2-((1R,2R)-2-phenyl-cyclopropanecarbonyl)-1,2,3,4-tetrahydro-isoquinolin-8-yl]-phenyl}-acetic acid] | 0.0105
CC(C)(C)Oc1ccc(CC(=O)O)cc1-c1ccc(F)c2c1CN(C(=O)[C@@H]1C[C@H]1c1ccccc1)CC2 [Example 428, {4-tert-Butoxy-3-[5-fluoro-2-((1R,2R)-2-phenyl-cyclopropanecarbonyl)-1,2,3,4-tetrahydro-isoquinolin-8-yl]-phenyl}-acetic acid] | 0.0037
CCOc1ccc(CC(=O)O)cc1-c1ccc(F)c2c1CN(C(=O)CC(C)c1nccs1)CC2 (racemic) [Example 283] | 0.0072
COc1ccc(CC(=O)O)cc1-c1ccc(Cl)c2c1CN(C(=O)CCc1c(C)[nH]c3ccccc13)CC2 [Example 79, (3-{5-Chloro-2-[3-(2-methyl-1H-indol-3-yl)-propionyl]-1,2,3,4-tetrahydro-isoquinolin-8-yl}-4-methoxy-phenyl)-acetic acid] | 0.0378
CC(C)Oc1ccc(CC(=O)O)cc1-c1ccc(F)c2c1CN(C(=O)C[C@@H](C)c1ccccc1)CC2 [Example 292, {3-[5-Fluoro-2-((R)-3-phenyl-butyryl)-1,2,3,4-tetrahydro-isoquinolin-8-yl]-4-isopropoxy-phenyl}-acetic acid] | 0.0025
O=C(O)COc1ccc(Cl)cc1-c1ccc(F)c2c1CN(C(=O)OCc1ccccc1)CC2 [Example 145, 8-(2-Carboxymethoxy-5-chloro-phenyl)-5-fluoro-3,4-dihydro-1H-isoquinoline-2-carboxylic acid benzyl ester] | 0.43
COc1ccc(CC(=O)O)cc1-c1ccc(F)c2c1CN(C(=O)[C@@H]1C[C@H]1c1ccccc1F)CC2 [Example 66, (3-{5-Fluoro-2-[(1R,2R)-2-(2-fluoro-phenyl)-cyclopropanecarbonyl]-1,2,3,4-tetrahydro-isoquinolin-8-yl}-4-methoxy-phenyl)-acetic acid] | 0.00177
CCOc1ccc(CC(=O)O)cc1-c1ccc(F)c2c1CN(C(=O)CC(C)c1ccc(F)cc1)CC2 (stereo not drawn) [Example 212, (4-Ethoxy-3-{5-fluoro-2-[3-(4-fluoro-phenyl)-butyryl]-1,2,3,4-tetrahydro-isoquinolin-8-yl}-phenyl)-acetic acid] | 0.0114
COc1cc(OC(C)C(=O)O)ccc1-c1ccc(F)c2c1CN(C(=O)OCc1ccccc1)CC2 (stereo not drawn) [Example 202, 8-[4-(1-Carboxy-ethoxy)-2-methoxy-phenyl]-5-fluoro-3,4-dihydro-1H-isoquinoline-2-carboxylic acid benzyl ester] | 0.179
CC(C)Oc1ccc(CC(=O)O)cc1-c1ccc(F)c2c1CN(C(=O)CC(C)c1ccccn1)CC2 (racemic) [Example 293] | 0.0016
COc1ccc(CC(=O)O)cc1-c1ccc(F)c2c1CN(C(=O)OCc1cnc(C)s1)CC2 [Example 151, 8-(5-Carboxymethyl-2-methoxy-phenyl)-5-fluoro-3,4-dihydro-1H-isoquinoline-2-carboxylic acid 2-methyl-thiazol-5-ylmethyl ester] | 0.00573
COc1c(CC(=O)O)cccc1-c1ccc(F)c2c1CN(C(=O)OCc1ccccc1)CC2 [Example 423, 8-(3-Carboxymethyl-2-methoxy-phenyl)-5-fluoro-3,4-dihydro-1H-isoquinoline-2-carboxylic acid benzyl ester] | 0.18
COc1ccc(CC(=O)O)cc1-c1ccc(F)c2c1CN(C(=O)CC1CCOc3ccc(F)cc31)CC2 (racemic) [Example 244] | 0.158
O=C(O)Cc1ccc(OCC(F)(F)F)c(-c2ccc(F)c3c2CN(C(=O)CC2COc4ccccc42)CC3)c1 (racemic) [Example 307] | 0.0034
O=C(O)Cc1ccc(OCC(F)(F)F)c(-c2ccc(F)c3c2CN(C(=O)CC2CCOc4ccccc42)CC3)c1 (racemic) [Example 299] | 0.0148
COc1ccc(CC(=O)O)cc1-c1ccc(F)c2c1CN(C(=O)CC1(c3ccccc3)CCC1)CC2 [Example 250, (3-{5-Fluoro-2-[2-(1-phenyl-cyclobutyl)-acetyl]-1,2,3,4-tetrahydro-isoquinolin-8-yl}-4-methoxy-phenyl)-acetic acid] | 0.146
C=C(C)CCOC(=O)N1CCc2c(F)ccc(-c3cc(CC(=O)O)ccc3OCC)c2C1 [Example 379, 8-(5-Carboxymethyl-2-ethoxy-phenyl)-5-fluoro-3,4-dihydro-1H-isoquinoline-2-carboxylic acid 3-methyl-but-3-enyl ester] | 0.0025
